US5789595A, “Tetrahydroisoquinoline derivative and medical preparation containing the same” (Terumo Kabushiki Kaisha, priority 1994, dated 1998)
Counter-ions that a name gives are not always drawn.

Tests used:
Assay type in all cases: cell-based
[1] = system: human platelet; assay: ADP-induced aggregation of human platelets (platelet-rich plasma), inhibition; details: human PRP, 20 to 30×1e4 platelets/μl, 37° C., read-out: Inhibitory action for agglutination by ADP IC50
Experimental: Inhibity effects on human platelet of the invention derivatives to evaluate the activity for inhibiting aggregation induced by ADP (adenosine diphosphate), thrombin, and fibrinogen were measured in accordance with the procedure as described below. (1) Preparation of platelet-rich plasma, washed platelets, and α-chymotrypsin-treated platelets Human whole blood withdrawn from human elbow vein into 10% volume of 3.8% sodium citrate was centrifuged at 135×g (1100 rpm) for 10 minutes, and the supernatant was collected as platelet-rich plasma (PRP). The residue was further centrifuged at 1600×g (3000 rpm) for 10 minutes, and the supernatant was collected as platelet-poor plasma (PPP). PRP and PPP were used for the measurement of the aggregation induced by ADP. In the meanwhile, PRP was applied to Sepharose CL-2B column (manufacture by Pharmacia) equilibrated with HEPES buffer, pH 7.4 containing 0.5% BSA and 5.5 mM glucose, and the fractions eluted in the void volume were collected as platelet-suspension, and used for the measurement of the aggregation induced by thrombin. In addition, washed platelet were treated with α-chymotrypsin of the final concentration of 10 U/ml for 30 minutes at room temperature. Then, the protease reaction was stopped by the addition of trypsin-chymotrypsin inhibitor (0.5 mg/ml), and α-chymotrypsin-treated platelet-suspension was used for the aggregation induced by fibrinogen. (2) Measurement of ADP-induced aggregation PRP was diluted with PPP to adjust the number of platelets to 20 to 30×1e4/μl, and the aggregation induced by ADP was measured with aggligometer (HEMATRACER VI, manufactured by NBS). 0.2 ml of PRP was placed in the cubette of the aggligometer with 25 μl of the test solution or physiological saline (control), and was incubated at 37° C. for 5 minutes with stirring (1000 rpm). Then, 25 μl of ADP solution was added and the time course of the light transmittance was recorded. The transmittance of PRP and PPP were calibrated as 0 and 100% respectively, and the maximum transmittance after adding the agonist was taken for the maximum aggregation. The concentration of 50% inhibition (IC50) was calculated from the proportion of the maximum aggregation with test solution to physiological saline.

[2] = system: human platelet; assay: Thrombin-induced aggregation of human platelets (washed platelet suspension), inhibition; details: HEPES buffer pH 7.4, 2 mM CaCl2 and MgCl2, read-out: Inhibitory action for agglutination by thrombin IC50
Experimental: (§1) Inhibity effects on human platelet of the invention derivatives to evaluate the activity for inhibiting aggregation induced by ADP (adenosine diphosphate), thrombin, and fibrinogen were measured in accordance with the procedure as described below.
(§2) (1) Preparation of platelet-rich plasma, washed platelets, and α-chymotrypsin-treated platelets
(§3) Human whole blood withdrawn from human elbow vein into 10% volume of 3.8% sodium citrate was centrifuged at 135×g (1100 rpm) for 10 minutes, and the supernatant was collected as platelet-rich plasma (PRP). The residue was further centrifuged at 1600×g (3000 rpm) for 10 minutes, and the supernatant was collected as platelet-poor plasma (PPP). PRP and PPP were used for the measurement of the aggregation induced by ADP. In the meanwhile, PRP was applied to Sepharose CL-2B column (manufacture by Pharmacia) equilibrated with HEPES buffer, pH 7.4 containing 0.5% BSA and 5.5 mM glucose, and the fractions eluted in the void volume were collected as platelet-suspension, and used for the measurement of the aggregation induced by thrombin. In addition, washed platelet were treated with α-chymotrypsin of the final concentration of 10 U/ml for 30 minutes at room temperature. Then, the protease reaction was stopped by the addition of trypsin-chymotrypsin inhibitor (0.5 mg/ml), and α-chymotrypsin-treated platelet-suspension was used for the aggregation induced by fibrinogen.
(3) Measurement of thrombin-induced aggregation
The platelet-suspension was diluted with HEPES buffer, pH 7.4 to adjust the number of platelets to 20 to 30×1e4/μl, and calcium chloride and magnesium chloride were respectively added to 2 mM (final concentration). The aggregation induced by thrombin was measured with this platelet-suspension and HEPES buffer (contrast) by the same procedure as the measurement of the aggregation induced by the ADP. The concentration of 50% inhibition (IC50) was calculated from the proportion of the maximum aggregation with test solution to physiological saline.

[3] = system: human platelet; assay: Fibrinogen-induced aggregation of α-chymotrypsin-treated human platelets, inhibition; details: fibrinogen (0.4 mg/ml), HEPES buffer pH 7.4, PGE1 1 μM, read-out: Inhibitory action for agglutination by fibrinogen IC50
Experimental: as §1, §2
as §3, with “In addition, washed platelet were treated with α-chymotrypsin of the final concentration of 10 U/ml for 30 minutes at room temperature. Then, the protease reaction was stopped by the addition of trypsin-chymotrypsin inhibitor (0.5 mg/ml), and α-chymotrypsin-treated platelet-suspension was used for the aggregation induced by fibrinogen.” left out
α-chymotrypsin-treated platelet-suspension was diluted with HEPES buffer, pH 7.4 to adjust the number of platelets to 20 to 30×1e4/μl. […] The aggregation induced by fibrinogen (0.4 mg/ml) was measured with this platelet-suspension and the HEPES buffer (contrast). […]

IC50 [1]	IC50 [2]	IC50 [3]	SMILES
0.23 µM	–	–	CC1CNCCC1OCC(=O)Nc1ccc2c(c1)CN(CCC(=O)O)CC2 (centres unmarked) [Ex. 8, 7-(3-methylpiperidine-4-yloxyacetylamino)-2-(2-carboxyethyl)-1,2,3,4-tetrahydroisoquinoline]
0.32 µM	–	–	CC(CC(=O)O)N1CCc2ccc(NC(=O)COC3CCNCC3)cc2C1 (centres unmarked) [Ex. 9, 7-(piperidine-4-yloxyacetylamino)-2-(2-carboxy-1-methylethyl)-1,2,3,4-tetrahydroisoquinoline]
0.38 µM	–	–	CC1c2cc(NC(=O)COC3CCNCC3)ccc2CCN1CCC(=O)O (centres unmarked) [Ex. 10, 2-(2-carboxyethyl)-1-methyl-7-(piperidine-4-yloxyacetylamino)-1,2,3,4-tetrahydroisoquinoline hydrochloride]
0.15 µM	–	–	CC1CN(CCC(=O)O)Cc2cc(NC(=O)COC3CCNCC3)ccc21 (centres unmarked) [Ex. 11, 2-(2-carboxyethyl)-4-methyl-7-(piperidine-4-yloxyacetylamino)-1,2,3,4-tetrahydroisoquinoline hydrochloride]
12 µM	–	–	CC1(C)Cc2ccc(NC(=O)COC3CCNCC3)cc2CN1CCC(=O)O [Ex. 12, 2-(2-carboxyethyl)-3,3-dimethyl-7-(piperidine-4-yloxyacetylamino)-1,2,3,4-tetrahydroisoquinoline hydrochloride]

The next lines start with the molecule.

SMILES	IC50 [1]	IC50 [2]	IC50 [3]
O=C(O)CN1CCc2ccc(NC(=O)COC3CCNCC3)cc2C1 [Ex. 1, 7-(piperidine-4-yloxyacetylamino)-2-carboxymethyl-1,2,3,4-tetrahydroisoquinoline]	5 µM	4.8 µM	–
O=C(O)CCN1CCc2ccc(NC(=O)COC3CCNCC3)cc2C1 [Ex. 2, 7-(piperidine-4-yloxyacetylamino)-2-carboxyethyl-1,2,3,4-tetrahydroisoquinoline]	0.097 µM	0.066 µM	0.038 µM
O=C(O)CCCN1CCc2ccc(NC(=O)COC3CCNCC3)cc2C1 [Ex. 3, 7-(piperidine-4-yloxyacetylamino)-2-(3-carboxypropyl)-1,2,3,4-tetrahydroisoquinoline]	> 10 µM	> 10 µM	–
CN(C(=O)COC1CCNCC1)c1ccc2c(c1)CN(CCC(=O)O)CC2 [Ex. 5, 7-[(piperidine-4-yloxyacetyl)methylamino]-2-[2-(carboxy)ethyl]-1,2,3,4-tetrahydroisoquinoline]	81 µM	43 µM	–
O=C(O)CCN1CCc2ccc(NC(=O)COC3CCNCC3)cc2C1c1ccccc1 (centres unmarked) [Ex. 6, 2-(carbonylethyl)-1-phenyl-7-(piperidine-4-yloxyacetylamino)-1,2,3,4-tetrahydroisoquinoline]	2.9 µM	1.9 µM	–
CC1CC(OCC(=O)Nc2ccc3c(c2)CN(CCC(=O)O)CC3)CC(C)N1 (centres unmarked) [Ex. 7, 7-(2,6-dimethylpiperidine-4-yloxyacetylamino)-2-(2-carboxyethyl)-1,2,3,4-tetrahydroisoquinoline]	> 10 µM	–	–
